Measurements reported in patent US20250326722A1 (SHANGHAI HANSOH BIOMEDICAL CO., LTD., priority 2022, published 2025).

What was measured:
PCSK9 protein = PCSK9 protein (Homo sapiens (Human), UniProt Q8NBP7); assay: Binding experiment: surface plasmon resonance (SPR) binding to PCSK9 protein
Text: • 1. Experimental objective: To detect the action of compounds to bind PCSK9 protein by a conventional surface plasmon resonance (SPR) method.

[1] = molecular target: PCSK9 secreted by HepG2 cells (Homo sapiens (Human), UniProt Q8NBP7); assay: Effect on the concentration of PCSK9 secreted by HepG2 cells (ELISA); assay type: cell-based; settings: 48 hours incubation, read-out: Inhibitory activity on PCSK9, IC50
PCSK9 secreted by HepG2 cells, sequence (Q8NBP7 153-692): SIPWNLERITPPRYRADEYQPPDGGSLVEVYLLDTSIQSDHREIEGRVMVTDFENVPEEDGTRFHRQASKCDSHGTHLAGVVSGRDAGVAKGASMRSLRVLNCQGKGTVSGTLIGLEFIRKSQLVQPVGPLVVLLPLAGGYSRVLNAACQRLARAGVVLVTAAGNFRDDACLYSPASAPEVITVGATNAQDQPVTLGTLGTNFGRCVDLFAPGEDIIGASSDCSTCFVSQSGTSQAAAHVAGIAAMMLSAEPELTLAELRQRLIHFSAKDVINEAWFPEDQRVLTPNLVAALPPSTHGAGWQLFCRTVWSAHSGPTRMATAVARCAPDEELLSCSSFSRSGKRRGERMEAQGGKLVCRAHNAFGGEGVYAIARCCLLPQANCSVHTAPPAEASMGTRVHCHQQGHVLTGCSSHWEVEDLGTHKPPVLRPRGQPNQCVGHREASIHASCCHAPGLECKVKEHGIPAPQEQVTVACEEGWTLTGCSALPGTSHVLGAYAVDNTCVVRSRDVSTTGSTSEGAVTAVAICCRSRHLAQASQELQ
PCSK9 secreted by HepG2 cells, sequence (Q8NBP7 31-152 partner): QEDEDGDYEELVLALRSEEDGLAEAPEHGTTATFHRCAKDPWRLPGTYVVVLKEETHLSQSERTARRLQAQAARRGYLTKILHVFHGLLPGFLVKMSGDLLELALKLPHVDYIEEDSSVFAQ
Text: • 1. Experimental objective: To detect the inhibitory effect of the compounds on PCSK9. • 2. Experimental instruments and reagents: • 2.1 Instruments:
• CircuLex Human PCSK9 ELISA kit (MBL: CY-8079); • DMEM (Gibco: 31966-021) • FBS (Sigma: S5394) • Compound plate (Thermo: 1353506) • Complete culture medium: DMEM+10% FBS+1×P/S; • Experimental culture medium: DMEM+10% FBS • Cell strain: HepG2 (ATCC: HB-8065)
A self-adhesive seal was applied, the plate was placed on a plate shaker at room temperature, gently shaken, uniformly mixed, and incubated for 1 hour. • 11) The plate was placed on the plate washer, the washing liquid was set to 350 μL per well, and the plate was washed 4 times repeatedly. • 12) 100 μL/well of an HRP-conjugated detection antibody was added, a self-adhesive seal was applied, and the plate was placed on the plate shaker, well mixed uniformly, and incubated for 1 hour. • 13) The plate was placed on the plate washer, the washing liquid was set to 350 μL per well, and the plate was washed 4 times repeatedly. • 14) 100 μL/well of Substrate reagent was added, and the plate was placed in the dark, applied with a self-adhesive seal, placed on the plate shaker, well mixed uniformly, and incubated for 10-20 minutes. • 15) 100 μL/well of Stop solution (1N H2SO4) was added and mixed uniformly. • 16) The optical density (OD) value in each well was measured in sequence at a wavelength of 450 nm by the microplate reader. Detection was carried out within 30 min after the reaction was stopped.
After the OD values were read by the microplate reader, the OD value of the 0-concentration standard in the standard group was subtracted from the OD values of the standards, control group, and samples to obtain the actual OD values for these wells. A standard curve was plotted with Graphpad and the concentration of the sample was calculated. If the dilution was performed during the sample detection, the calculated sample concentration was necessarily multiplied by the corresponding dilution ratio in the final calculation, which was the actual concentration of the sample. Inhibition rate=(actual concentration in control-actual concentration in sample)/actual concentration in control*100. According to the inhibition rates corresponding to the different concentrations, IC50 was derived by Graphpad.

[2] = Pharmacokinetic determination in mice (plasma); assay type: in vivo, C57BL/6J mice; settings: C57 mice, PO administration, 5 mpk; for AUC(0-inf) / half-life / MRT / Cmax: male, C57BL/6J, mouse, 5 mg/kg; for AUC(0-inf): read-out: Area under the curve AUC0-∞; for half-life: read-out: Half-life t1/2 (converted); for MRT: read-out: Mean residence time MRT; for Cmax: read-out: Plasma concentration Cmax
Protocol: C57BL/6J mice were used as test animals to study the pharmacokinetic behavior of the compounds of the present disclosure in mice (plasma) after oral and intravenous administration.
C57 mice, male, purchased from Shanghai Bk Lab Animal Co., Ltd., with animal production license number (SCXK (Shanghai) 2013-0006 NO.311620400001794).
• Preparation of oral drug: 10% Solutol HS15
10 g of Solutol HS15 solid was weighed, dissolved in 90 mL of pure water, uniformly mixed, stirred, and ultrasonically treated to form a clear solution.
The compound of the present disclosure was weighed and dissolved in this solution, uniformly shaken, and ultrasonically treated for 15 minutes to obtain a colorless clear solution with a concentration of 0.5 mg/mL. • Preparation of intravenous drug: 5% DMSO+10% Solutol HS15+85% PBS […]
3 male C57 mice were fasted overnight and then respectively administered PO at a dose of 5 mg/kg and a volume of 10 mL/kg. […]
Before and after administration of mice, 0.04 mL of blood was collected from the orbit at 0.083 (iv), 0.25, 0.5, 1, 2, 4, 8, and 24 hours, and placed in EDTA-K2 test tubes, which was centrifuged at 6000 rpm at 4° C. for 6 min to separate plasma which was stored at −80° C.; and the […] were fed 4 h after administration.
The final determination results were obtained by using an LCMS/MS method.
The main pharmacokinetic parameters were calculated using WinNonlin 6.1.

PCSK9 protein, sequence (Q8NBP7 153-692): as the sequence (Q8NBP7 153-692) above

| SMILES | Kd (PCSK9 protein) | IC50 [1] | Time to peak tmax [2] | also measured |
| --- | --- | --- | --- | --- |
| CC1(C)c2cccnc2C(=O)N1c1ccc(N[C@H]2CC[C@H](Nc3ncc(OC(F)F)cn3)C2)nc1 [Example 93, 6-(6-(((1S,3S)-3-((5-(difluoromethoxy)pyrimidin-2-yl)amino)cyclopentyl)amino)pyridin-3-yl)-5,5-dimethyl-5,6-dihydro-7H-pyrrolo[3,4-b]pyridin-7-one] | 2.9 nM |  |  |  |
| O=c1ccccn1-c1ccc(N[C@H]2CC[C@H](Nc3nc4cc(Cl)ccn4n3)C2)nc1 [Example 112, 6′-(((1S,3S)-3-((7-chloro-[1,2,4]triazolo[1,5-a]pyridin-2-yl)amino)cyclopentyl)amino)-2H-[1,3′-bipyridinyl]-2-one] | 2.7 nM |  |  |  |
| O=c1ccccn1-c1ccc(N[C@H]2CC[C@H](Nc3nc4cc(C(F)(F)F)ccn4n3)C2)nc1 [Example 113, 6′-(((1S,3S)-3-((7-(trifluoromethyl)-[1,2,4]triazolo[1,5-a]pyridin-2-yl)amino)cyclopentyl)amino)-2H-[1,3′-bipyridinyl]-2-one] | 4.2 nM | 14000 nM |  |  |
| Cc1nccc2c1CN(c1ccc(N[C@H]3CC[C@H](Nc4ncc(OC(F)F)cn4)C3)nc1)C2=O [Example 115, 2-(6-(((1S,3S)-3-((5-(difluoromethoxy)pyrimidin-2-yl)amino)cyclopentyl)amino)-3-yl)-4-methyl-2,3-dihydro-1H-pyrrolo[3,4-c]pyridin-1-one] | 3.1 nM | 3800 nM | 0.5 h | AUC(0-inf) [2]: 20900 ng·h/mL; half-life [2]: 5.8 h; MRT [2]: 5.3 h; Cmax [2]: 4290 ng/mL |
| O=C1c2cccnc2CN1c1ccc(N[C@H]2CC[C@H](Nc3ncc(OCC(F)(F)F)cn3)C2)nc1 [Example 124] | 0.8 nM | 16800 nM |  |  |
| O=C1c2ncccc2CN1c1ccc(N[C@H]2CC[C@H](Nc3ncc(OCC(F)(F)F)cn3)C2)nc1 [Example 125] |  | 17300 nM | 1 h | Area under the curve AUC0-∞ [2]: 24298 ng·h/mL; Half-life t1/2 [2]: 7.7 h; Mean residence time MRT [2]: 4.0 h; Plasma concentration Cmax [2]: 8545 ng/mL |
| O=C1c2ncccc2CN1c1ccc(N[C@H]2CC[C@H](Nc3ncc(C4CC4)nn3)C2)nc1 [Example 126, 6-(6-(((1S,3S)-3-((6-cyclopropyl-1,2,4-triazin-3-yl)amino)cyclopentyl)amino)pyridin-3-yl)-5,6-dihydro-7H-pyrrolo[3,4-b]pyridin-7-one] | 1.2 nM | 500 nM |  |  |
| O=C1c2ncccc2CN1c1ccc(N[C@H]2CC[C@H](Nc3ncc(C4CC4)cn3)C2)nc1 [Example 127] | 1.8 nM | 11800 nM |  |  |
| O=C1c2cccnc2CN1c1ccc(N[C@H]2CC[C@H](Nc3ncc(C4CC4)cn3)C2)nc1 [Example 128] |  | 7900 nM | 0.5 h | Area under the curve AUC0-∞ [2]: 10873 ng·h/mL; Half-life t1/2 [2]: 4.0 h; Mean residence time MRT [2]: 3.7 h; Plasma concentration Cmax [2]: 4307 ng/mL |
| Cc1ccn2nc(N[C@H]3CC[C@H](Nc4ccc(N5Cc6cccnc6C5=O)cn4)C3)nc2c1 [Example 130, 6-(6-(((1S,3S)-3-((7-methyl-[1,2,4]triazolo[1,5-a]pyridin-2-yl)amino)cyclopentyl)amino)pyridin-3-yl)-5,6-dihydro-7H-pyrrolo[3,4-b]pyridin-7-one] | 1.2 nM | 9900 nM |  |  |
| O=C1c2ncncc2CN1c1ccc(N[C@H]2CC[C@H](Nc3ncc(OC(F)F)cn3)C2)nc1 [Example 132, 6-(6-(((1S,3S)-3-((5-(difluoromethoxy)pyrimidin-2-yl)amino)cyclopentyl)amino)pyridin-3-yl)-5,6-dihydro-7H-pyrrolo[3,4-d]pyrimidin-7-one] | 1.1 nM | 12000 nM |  |  |
| O=C1c2cccnc2CN1c1ccc(N[C@H]2CC[C@H](Nc3ncc(C(F)(F)F)cn3)C2)nc1 [Example 133, 6-(6-(((1S,3S)-3-((5-(trifluoromethyl)pyrimidin-2-yl)amino)cyclopentyl)amino)-3-yl)-6,7-dihydro-5H-pyrrolo[3,4-b]pyridin-5-one] |  | 1100 nM | 0.25 h | AUC(0-inf) [2]: 36800 ng·h/mL; half-life [2]: 6.7 h; MRT [2]: 6.2 h; Cmax [2]: 7530 ng/mL |
| O=c1ccccn1-c1ccc(N[C@H]2CC[C@H](Nc3nc4cc(C5CC5)ccn4n3)C2)nc1 [Example 135, 6′-(((1S,3S)-3-((7-cyclopropyl-[1,2,4]triazolo[1,5-a]pyridin-2-yl)amino)cyclopentyl)amino)-2H-[1,3′-bipyridinyl]-2-one] | 4.9 nM | 22300 nM |  |  |
| O=C1c2ncccc2CN1c1ccc(N[C@H]2CC[C@H](Nc3ncc(OC(F)(F)F)cn3)C2)nc1 [Example 142, 6-(6-(((1S,3S)-3-((5-(trifluoromethoxy)pyrimidin-2-yl)amino)cyclopentyl)amino)pyridin-3-yl)-5,6-dihydro-7H-pyrrolo[3,4-b]pyridin-7-one] |  | 2400 nM | 2 h | AUC(0-inf) [2]: 50800 ng·h/mL; half-life [2]: 6.5 h; MRT [2]: 8.1 h; Cmax [2]: 5930 ng/mL |
| CC1(C)c2cccnc2C(=O)N1c1ccc(N[C@H]2CC[C@H](Nc3ncc(C(F)(F)F)nn3)C2)nc1 [Example 146, 5,5-Dimethyl-6-(6-(((1S,3S)-3-((6-(trifluoromethyl)-1,2,4-triazin-3-yl)amino)cyclopentyl)amino)pyridin-3-yl)-5,6-dihydro-7H-pyrrolo[3,4-b]pyridin-7-one] | 2.5 nM |  |  |  |
| O=C1c2cc(C(F)(F)F)ncc2CN1c1ccc(N[C@H]2CC[C@H](Nc3ncc(C(F)(F)F)nn3)C2)nc1 [Example 152, 6-(Trifluoromethyl)-2-(6-(((1S,3S)-3-((6-(trifluoromethyl)-1,2,4-triazin-3-yl)amino)cyclopentyl)amino)pyridin-3-yl)-2,3-dihydro-1H-pyrrolo[3,4-c]pyridin-1-one] |  | 1500 nM | 2 h | AUC(0-inf) [2]: 65500 ng·h/mL; half-life [2]: 9.6 h; MRT [2]: 12.1 h; Cmax [2]: 5290 ng/mL |
| O=C1c2ncc(F)cc2CN1c1ccc(N[C@H]2CC[C@H](Nc3ncc(C(F)(F)F)nn3)C2)nc1 [Example 153, 3-Fluoro-6-(6-(((1S,3S)-3-((6-(trifluoromethyl)-1,2,4-triazin-3-yl)amino)cyclopentyl)amino)pyridin-3-yl)-5,6-dihydro-7H-pyrrolo[3,4-b]pyridin-7-one] |  | 26400 nM | 2 h | AUC(0-inf) [2]: 34600 ng·h/mL; half-life [2]: 2.9 h; MRT [2]: 4.4 h; Cmax [2]: 6310 ng/mL |
| O=C1c2c(cccc2C(F)(F)F)CN1c1ccc(N[C@H]2CC[C@H](Nc3nc4cc(F)ccn4n3)C2)nc1 [Example 161] | 2.6 nM | 17600 nM |  |  |
| O=C1c2cccc(C(F)(F)F)c2CN1c1ccc(N[C@H]2CC[C@H](Nc3nc4cc(F)ccn4n3)C2)nc1 [Example 162] | 3 nM | 22800 nM |  |  |
